Measurements as given in US8574563B2 (Bristol-Myers Squibb Company, priority 2006, dated 2013).
Read-outs that look alike come from different tables or passages of the source.

System: HCV 1b-377-neo replicon cells
Assay: HCV replicon assay, HCV 1b-377-neo replicon cells (1b FRET)
Type: cell-based, Hepatitis C virus genotype 1b
Conditions: HCV 1b-377-neo replicon cells, HCV 1b genotype, read-out: EC50 range against HCV 1b (Table 2, Range)
Summary of the method: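 Compounds were tested in genotype 1b subgenomic replicon cells carrying a neomycin marker, alongside a matched replicon line with an NS5A Y2065H substitution that confers resistance to a reference NS5A inhibitor.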

Row | Structure (SMILES) | EC50 (Hepatitis C virus) [nM] | EC50 [nM]
1 | CN1CCC(C(=O)N[C@@H](C(=O)N2CCC[C@H]2c2ncc(-c3ccc(-c4ccc(-c5cnc([C@@H]6CCCN6C(=O)[C@@H]6CCCO6)[nH]5)cc4)cc3)[nH]2)c2ccccc2)CC1 [Example 114, 1-methyl-N-((1R)-2-oxo-1-phenyl-2-((2S)-2-(5-(4′-(2-((2S)-1-((2S)-tetrahydro-2-furanylcarbonyl)-2-pyrrolidinyl)-1H-imidazol-5-yl)-4-biphenylyl)-1H-imidazol-2-yl)-1-pyrrolidinyl)ethyl)-4-piperidinecarboxamide] | 0.001 to 0.999 | 
2 | O=C(N[C@@H](C(=O)N1CCC[C@H]1c1ncc(-c2ccc(-c3ccc(-c4cnc([C@@H]5CCCN5C(=O)[C@@H]5CCCO5)[nH]4)cc3)cc2)[nH]1)c1ccccc1)C1CCOCC1 [Example 115, N-((1R)-2-oxo-1-phenyl-2-((2S)-2-(5-(4′-(2-((2S)-1-((2S)-tetrahydro-2-furanylcarbonyl)-2-pyrrolidinyl)-1H-imidazol-5-yl)-4-biphenylyl)-1H-imidazol-2-yl)-1-pyrrolidinyl)ethyl) tetrahydro-2H-pyran-4-carboxamide] | 0.001 to 0.999 | 
3 | CN1C[C@H](F)C[C@H]1C(=O)N[C@@H](C(=O)N1CCC[C@H]1c1ncc(-c2ccc(-c3ccc(-c4cnc([C@@H]5CCCN5C(=O)[C@@H]5CCCO5)[nH]4)cc3)cc2)[nH]1)c1ccccc1 [Example 116, (4R)-4-fluoro-1-methyl-N-((1R)-2-oxo-1-phenyl-2-((2S)-2-(5-(4′-(2-((2S)-1-((2S)-tetrahydro-2-furanylcarbonyl)-2-pyrrolidinyl)-1H-imidazol-5-yl)-4-biphenylyl)-1H-imidazol-2-yl)-1-pyrrolidinyl)ethyl)-L-prolinamide] | 0.001 to 0.999 | 
4 | CN1CCN(C(=O)N[C@@H](C(=O)N2CCC[C@H]2c2ncc(-c3ccc(-c4ccc(-c5cnc([C@@H]6CCCN6C(=O)[C@@H]6CCCO6)[nH]5)cc4)cc3)[nH]2)c2ccccc2)CC1 [Example 117, 4-methyl-N-((1R)-2-oxo-1-phenyl-2-((2S)-2-(5-(4′-(2-((2S)-1-((2S)-tetrahydro-2-furanylcarbonyl)-2-pyrrolidinyl)-1H-imidazol-5-yl)-4-biphenylyl)-1H-imidazol-2-yl)-1-pyrrolidinyl)ethyl)-1-piperazinecarboxamide] | 0.001 to 0.999 | 
5 | CC(=O)N[C@@H](C(=O)N1CCC[C@H]1c1ncc(-c2ccc(-c3ccc(-c4cnc([C@@H]5CCCN5C(=O)[C@H]5CCCO5)[nH]4)cc3)cc2)[nH]1)c1ccccc1 [Example 118, N-((1R)-2-oxo-1-phenyl-2-((2S)-2-(5-(4′-(2-((2S)-1-((2R)-tetrahydro-2-furanylcarbonyl)-2-pyrrolidinyl)-1H-imidazol-5-yl)-4-biphenylyl)-1H-imidazol-2-yl)-1-pyrrolidinyl)ethyl) acetamide] | 0.001 to 0.999 | 
6 | O=C(N[C@@H](C(=O)N1CCC[C@H]1c1ncc(-c2ccc(-c3ccc(-c4cnc([C@@H]5CCCN5C(=O)[C@H]5CCCO5)[nH]4)cc3)cc2)[nH]1)c1ccccc1)[C@H]1CCCO1 [Example 119, (2R)-N-((1R)-2-oxo-1-phenyl-2-((2S)-2-(5-(4′-(2-((2S)-1-((2R)-tetrahydro-2-furanylcarbonyl)-2-pyrrolidinyl)-1H-imidazol-5-yl)-4-biphenylyl)-1H-imidazol-2-yl)-1-pyrrolidinyl)ethyl)tetrahydro-2-furancarboxamide] | 0.001 to 0.999 | 
7 | O=C(N[C@@H](C(=O)N1CCC[C@H]1c1ncc(-c2ccc(-c3ccc(-c4cnc([C@@H]5CCCN5C(=O)[C@H]5CCCO5)[nH]4)cc3)cc2)[nH]1)c1ccccc1)N1CCOCC1 [Example 120, N-((1R)-2-oxo-1-phenyl-2-((2S)-2-(5-(4′-(2-((2S)-1-((2R)-tetrahydro-2-furanylcarbonyl)-2-pyrrolidinyl)-1H-imidazol-5-yl)-4-biphenylyl)-1H-imidazol-2-yl)-1-pyrrolidinyl)ethyl)-4-morpholinecarboxamide] | 0.001 to 0.999 | 
8 | Cn1cncc1C(=O)N[C@@H](C(=O)N1CCC[C@H]1c1ncc(-c2ccc(-c3ccc(-c4c[nH]c([C@@H]5CCCN5C(=O)[C@H]5CCCO5)n4)cc3)cc2)[nH]1)c1ccccc1 [Example 120-5, 1-methyl-N-((1R)-2-oxo-1-phenyl-2-((2S)-2-(5-(4′-(2-((2S)-1-((2R)-tetrahydro-2-furanylcarbonyl)-2-pyrrolidinyl)-1H-imidazol-4-yl)-4-biphenylyl)-1H-imidazol-2-yl)-1-pyrrolidinyl)ethyl)-1H-imidazole-5-carboxamide] | 1 to 99 | 
9 | CN1CCC[C@H]1C(=O)N[C@@H](C(=O)N1CCC[C@H]1c1ncc(-c2ccc(-c3ccc(-c4c[nH]c([C@@H]5CCCN5C(=O)[C@H]5CCCO5)n4)cc3)cc2)[nH]1)c1ccccc1 [Example 120-6, 1-methyl-N-((1R)-2-oxo-1-phenyl-2-((2S)-2-(5-(4′-(2-((2S)-1-((2R)-tetrahydro-2-furanylcarbonyl)-2-pyrrolidinyl)-1H-imidazol-4-yl)-4-biphenylyl)-1H-imidazol-2-yl)-1-pyrrolidinyl)ethyl)-L-prolinamide] | 1 to 99 | 
10 | O=C(Cc1cccnc1)N[C@@H](C(=O)N1CCC[C@H]1c1ncc(-c2ccc(-c3ccc(-c4c[nH]c([C@@H]5CCCN5C(=O)[C@H]5CCCO5)n4)cc3)cc2)[nH]1)c1ccccc1 [Example 120-7, N-((1R)-2-oxo-1-phenyl-2-((2S)-2-(5-(4′-(2-((2S)-1-((2R)-tetrahydro-2-furanylcarbonyl)-2-pyrrolidinyl)-1H-imidazol-4-yl)-4-biphenylyl)-1H-imidazol-2-yl)-1-pyrrolidinyl)ethyl)-2-(3-pyridinyl)acetamide] | 0.001 to 0.999 | 
11 | CN(C)CC(=O)N[C@@H](C(=O)N1CCC[C@H]1c1ncc(-c2ccc(-c3ccc(-c4c[nH]c([C@@H]5CCCN5C(=O)[C@H]5CCCO5)n4)cc3)cc2)[nH]1)c1ccccc1 [Example 120-8, N^2,N^2-dimethyl-N-((1R)-2-oxo-1-phenyl-2-((2S)-2-(5-(4′-(2-((2S)-1-((2R)-tetrahydro-2-furanylcarbonyl)-2-pyrrolidinyl)-1H-imidazol-4-yl)-4-biphenylyl)-1H-imidazol-2-yl)-1-pyrrolidinyl)ethyl) glycinamide] |  | 1 to 99
12 | O=C(Nc1cccnc1)N[C@@H](C(=O)N1CCC[C@H]1c1ncc(-c2ccc(-c3ccc(-c4c[nH]c([C@@H]5CCCN5C(=O)[C@H]5CCCO5)n4)cc3)cc2)[nH]1)c1ccccc1 [Example 120-9, 1-((1R)-2-oxo-1-phenyl-2-((2S)-2-(5-(4′-(2-((2S)-1-((2R)-tetrahydro-2-furanylcarbonyl)-2-pyrrolidinyl)-1H-imidazol-4-yl)-4-biphenylyl)-1H-imidazol-2-yl)-1-pyrrolidinyl)ethyl)-3-(3-pyridinyl)urea] | 0.001 to 0.999 | 
13 | Cc1cc(-c2cnc([C@@H]3CCCN3C(=O)[C@@H](c3ccccc3)N(C)C)[nH]2)ccc1-c1ccc(-c2cnc([C@@H]3CCCN3C(=O)[C@@H](c3ccccc3)N(C)C)[nH]2)cc1C [Example 121] | 0.001 to 0.999 | 
14 | COC(=O)N[C@@H](C(=O)N1CCC[C@H]1c1ncc(-c2ccc(-c3ccc(-c4cnc([C@@H]5CCCN5C(=O)[C@H](NC(=O)OC)c5ccccc5)[nH]4)cc3C)c(C)c2)[nH]1)c1ccccc1 [Example 122] | 0.001 to 0.999 | 
15 | Cc1cc(-c2cnc([C@@H]3CCCN3C(=O)[C@@H](c3ccccc3)N(C)C)[nH]2)ccc1-c1ccc(-c2cnc([C@@H]3CCCN3C(=O)[C@@H](c3ccccc3)N(C)C)[nH]2)cc1 [Example 123, (1R,1′R)-2,2′-((2-methyl-4,4′-biphenyldiyl)bis(1H-imidazole-5,2-diyl(2S)-2,1-pyrrolidinediyl))bis(N,N-dimethyl-2-oxo-1-phenylethanamine)] | 0.001 to 0.999 | 
